Experimental data published in ChEMBL document CHEMBL1201862, “PubChem BioAssay data set” (2004).
Values joined by “and” are separate entries in the source; they are usually repeats but may differ in a detail not shown here. Identical values can stand only once. Active and inactive are the calls of the source.

Columns and labels:
[1] = target: T1, High affinity choline transporter 1 (Homo sapiens, UniProt Q9GZV3); experiment: human choline transporter blockers, potency – cell-based, 5-point CRC, membrane potential dye, dose response (AID 504840); type: functional
T1 sequence (Q9GZV3 whole entry): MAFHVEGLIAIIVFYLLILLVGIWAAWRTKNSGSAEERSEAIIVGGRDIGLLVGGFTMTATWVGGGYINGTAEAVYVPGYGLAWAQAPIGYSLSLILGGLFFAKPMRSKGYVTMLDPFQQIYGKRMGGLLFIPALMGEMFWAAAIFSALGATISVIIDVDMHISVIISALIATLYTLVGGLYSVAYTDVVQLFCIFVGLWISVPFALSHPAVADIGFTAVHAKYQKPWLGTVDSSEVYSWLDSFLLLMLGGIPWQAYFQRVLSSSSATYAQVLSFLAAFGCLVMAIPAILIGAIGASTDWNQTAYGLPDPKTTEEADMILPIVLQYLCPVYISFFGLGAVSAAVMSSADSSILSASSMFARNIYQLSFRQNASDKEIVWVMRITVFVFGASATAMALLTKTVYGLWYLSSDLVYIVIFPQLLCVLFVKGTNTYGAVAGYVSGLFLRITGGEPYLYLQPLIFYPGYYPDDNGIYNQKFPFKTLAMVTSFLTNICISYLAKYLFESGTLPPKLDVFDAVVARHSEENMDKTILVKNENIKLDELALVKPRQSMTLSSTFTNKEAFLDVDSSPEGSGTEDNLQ

[2] = target: T2, Polyadenylate-binding protein 1 (Homo sapiens, UniProt P11940); experiment: MLLE domain peptide-binding blockers, IC50 – biochemical, fluorescence polarization, FITC-PAM2 peptide, dose response (AID 602259); type: functional; conditions: read-out: IC50_Mean
T2 sequence (P11940 whole entry, the tested form may be a part): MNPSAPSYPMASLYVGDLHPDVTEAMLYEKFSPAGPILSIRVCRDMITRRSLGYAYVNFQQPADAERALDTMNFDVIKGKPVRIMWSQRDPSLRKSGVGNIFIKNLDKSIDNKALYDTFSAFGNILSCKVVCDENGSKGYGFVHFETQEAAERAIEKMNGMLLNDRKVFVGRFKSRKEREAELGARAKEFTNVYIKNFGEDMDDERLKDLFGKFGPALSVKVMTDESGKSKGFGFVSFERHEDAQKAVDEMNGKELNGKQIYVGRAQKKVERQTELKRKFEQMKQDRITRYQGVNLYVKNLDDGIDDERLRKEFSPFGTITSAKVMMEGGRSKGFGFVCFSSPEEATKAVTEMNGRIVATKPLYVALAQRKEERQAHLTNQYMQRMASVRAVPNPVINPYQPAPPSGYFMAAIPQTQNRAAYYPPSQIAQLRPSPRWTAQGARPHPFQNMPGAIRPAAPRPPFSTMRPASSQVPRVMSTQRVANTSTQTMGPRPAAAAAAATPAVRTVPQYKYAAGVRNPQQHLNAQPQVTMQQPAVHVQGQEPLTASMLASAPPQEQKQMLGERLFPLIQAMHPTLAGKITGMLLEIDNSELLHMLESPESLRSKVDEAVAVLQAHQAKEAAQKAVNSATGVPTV

[3] = target: T2, Polyadenylate-binding protein 1; experiment: MLLE binding blockers, Cy5 peptide tracer – biochemical, fluorescence polarization, Cy5-PAM2 peptide, secondary, miRNA deadenylation inhibitor project, dose response (AID 602260); type: functional; conditions: read-out: IC50_Mean
[4] = Luminescence Cell-Based Dose Retest to Confirm Inhibitors of Cancer Stem Cells. [Related pubchem assays (depositor defined):AID2717, AID2721]; type: functional; conditions: Homo sapiens
[5] = target: Heat shock protein HSP 90-alpha (Homo sapiens, UniProt P07900); type: functional, organism-based
[6] = microbe, parasite or virus in culture; type: functional; conditions: Mycobacterium tuberculosis
[7] = target: T3, Replicative DNA helicase DnaB (Mycobacterium tuberculosis, UniProt P9WMR3); experiment: DnaB intein splicing inhibitors, dose response, biochemical, cell-free fluorescence (AID 449749); type: functional
T3 sequence (P9WMR3 whole entry): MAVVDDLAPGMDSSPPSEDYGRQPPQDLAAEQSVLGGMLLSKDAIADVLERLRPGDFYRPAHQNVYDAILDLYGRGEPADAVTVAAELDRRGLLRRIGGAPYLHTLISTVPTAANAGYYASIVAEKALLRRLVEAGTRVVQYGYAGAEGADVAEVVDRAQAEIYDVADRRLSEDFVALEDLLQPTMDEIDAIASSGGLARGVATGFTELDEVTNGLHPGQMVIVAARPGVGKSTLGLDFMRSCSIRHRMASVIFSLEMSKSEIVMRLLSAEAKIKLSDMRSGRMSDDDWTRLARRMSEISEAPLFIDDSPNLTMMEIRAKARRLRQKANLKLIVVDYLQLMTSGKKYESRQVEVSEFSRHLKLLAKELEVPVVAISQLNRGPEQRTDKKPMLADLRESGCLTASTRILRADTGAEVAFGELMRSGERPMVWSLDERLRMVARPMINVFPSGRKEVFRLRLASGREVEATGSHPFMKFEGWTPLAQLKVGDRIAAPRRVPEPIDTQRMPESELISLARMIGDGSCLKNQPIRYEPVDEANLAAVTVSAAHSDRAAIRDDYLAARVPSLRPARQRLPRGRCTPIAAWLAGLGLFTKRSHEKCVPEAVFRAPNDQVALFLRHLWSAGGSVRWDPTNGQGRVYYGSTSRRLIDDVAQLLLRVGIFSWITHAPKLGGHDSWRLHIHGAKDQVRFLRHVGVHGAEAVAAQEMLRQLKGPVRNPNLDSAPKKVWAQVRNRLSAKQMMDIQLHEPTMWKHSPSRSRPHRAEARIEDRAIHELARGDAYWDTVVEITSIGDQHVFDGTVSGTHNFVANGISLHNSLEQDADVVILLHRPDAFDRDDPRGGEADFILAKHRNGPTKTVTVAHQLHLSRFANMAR

Protein RecA = target: T4, Protein RecA (Mycobacterium tuberculosis, UniProt P9WHJ3); experiment: Fluorescence Cell-Free Homogeneous Dose Retest to Identify Inhibitors of RecA-Intein Splicing Activity. [Related pubchem assays (depositor defined):AID2097, AID2223, AID489010, AID492950]; type: functional
T4 sequence (P9WHJ3 whole entry): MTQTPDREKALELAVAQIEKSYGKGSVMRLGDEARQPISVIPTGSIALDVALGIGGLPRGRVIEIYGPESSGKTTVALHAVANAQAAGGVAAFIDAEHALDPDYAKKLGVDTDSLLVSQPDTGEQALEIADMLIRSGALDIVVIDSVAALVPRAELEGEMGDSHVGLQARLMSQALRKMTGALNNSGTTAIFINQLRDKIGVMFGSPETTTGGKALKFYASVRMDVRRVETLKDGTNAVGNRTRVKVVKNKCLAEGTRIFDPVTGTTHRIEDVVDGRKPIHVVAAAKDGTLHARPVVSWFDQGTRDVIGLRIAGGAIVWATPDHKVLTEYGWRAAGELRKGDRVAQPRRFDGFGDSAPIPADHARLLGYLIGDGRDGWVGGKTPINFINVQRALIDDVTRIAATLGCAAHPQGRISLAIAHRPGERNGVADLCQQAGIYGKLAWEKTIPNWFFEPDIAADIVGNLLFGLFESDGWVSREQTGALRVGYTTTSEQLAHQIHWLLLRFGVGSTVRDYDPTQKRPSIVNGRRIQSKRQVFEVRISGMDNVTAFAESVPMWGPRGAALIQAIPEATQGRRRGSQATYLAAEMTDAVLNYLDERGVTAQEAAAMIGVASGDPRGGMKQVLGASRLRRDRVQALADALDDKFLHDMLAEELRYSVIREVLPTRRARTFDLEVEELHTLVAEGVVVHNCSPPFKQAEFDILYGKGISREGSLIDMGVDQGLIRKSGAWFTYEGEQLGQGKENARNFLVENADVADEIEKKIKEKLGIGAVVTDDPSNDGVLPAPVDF

P388 = experiment: cells; type: functional; conditions: Mus musculus
P388/ADR = experiment: cells; type: functional; conditions: Mus musculus
SN12K1 = experiment: cells; type: functional; conditions: Homo sapiens
Exodeoxyribonuclease V = target: T5, Exodeoxyribonuclease V (Escherichia coli (strain K12), UniProt P04993+P07648+P08394); experiment: RecBCD inhibition via phage-restricted bacterial growth – absorbance, V66 E. coli, mutant T4 phage, counter-screen for AddAB inhibitor project, dose response (AID 492957); type: functional, cell-based, Escherichia coli str. K-12 substr. MG1655
T5 sequence (P04993 whole entry): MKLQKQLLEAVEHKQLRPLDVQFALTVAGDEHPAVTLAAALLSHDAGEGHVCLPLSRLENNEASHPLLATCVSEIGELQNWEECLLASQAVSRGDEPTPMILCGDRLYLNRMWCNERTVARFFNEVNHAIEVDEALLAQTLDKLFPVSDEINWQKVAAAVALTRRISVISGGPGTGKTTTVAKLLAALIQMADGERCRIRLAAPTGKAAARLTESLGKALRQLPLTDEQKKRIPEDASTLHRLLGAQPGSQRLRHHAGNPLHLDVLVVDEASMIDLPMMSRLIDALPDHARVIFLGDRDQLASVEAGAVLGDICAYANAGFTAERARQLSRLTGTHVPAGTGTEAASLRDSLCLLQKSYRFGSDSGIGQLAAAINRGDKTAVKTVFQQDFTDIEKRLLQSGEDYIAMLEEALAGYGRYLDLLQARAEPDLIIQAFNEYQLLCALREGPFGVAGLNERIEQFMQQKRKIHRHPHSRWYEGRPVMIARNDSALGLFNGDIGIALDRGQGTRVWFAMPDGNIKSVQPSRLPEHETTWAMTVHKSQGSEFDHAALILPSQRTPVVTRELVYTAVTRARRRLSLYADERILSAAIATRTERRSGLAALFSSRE
T5 sequence (P07648 whole entry): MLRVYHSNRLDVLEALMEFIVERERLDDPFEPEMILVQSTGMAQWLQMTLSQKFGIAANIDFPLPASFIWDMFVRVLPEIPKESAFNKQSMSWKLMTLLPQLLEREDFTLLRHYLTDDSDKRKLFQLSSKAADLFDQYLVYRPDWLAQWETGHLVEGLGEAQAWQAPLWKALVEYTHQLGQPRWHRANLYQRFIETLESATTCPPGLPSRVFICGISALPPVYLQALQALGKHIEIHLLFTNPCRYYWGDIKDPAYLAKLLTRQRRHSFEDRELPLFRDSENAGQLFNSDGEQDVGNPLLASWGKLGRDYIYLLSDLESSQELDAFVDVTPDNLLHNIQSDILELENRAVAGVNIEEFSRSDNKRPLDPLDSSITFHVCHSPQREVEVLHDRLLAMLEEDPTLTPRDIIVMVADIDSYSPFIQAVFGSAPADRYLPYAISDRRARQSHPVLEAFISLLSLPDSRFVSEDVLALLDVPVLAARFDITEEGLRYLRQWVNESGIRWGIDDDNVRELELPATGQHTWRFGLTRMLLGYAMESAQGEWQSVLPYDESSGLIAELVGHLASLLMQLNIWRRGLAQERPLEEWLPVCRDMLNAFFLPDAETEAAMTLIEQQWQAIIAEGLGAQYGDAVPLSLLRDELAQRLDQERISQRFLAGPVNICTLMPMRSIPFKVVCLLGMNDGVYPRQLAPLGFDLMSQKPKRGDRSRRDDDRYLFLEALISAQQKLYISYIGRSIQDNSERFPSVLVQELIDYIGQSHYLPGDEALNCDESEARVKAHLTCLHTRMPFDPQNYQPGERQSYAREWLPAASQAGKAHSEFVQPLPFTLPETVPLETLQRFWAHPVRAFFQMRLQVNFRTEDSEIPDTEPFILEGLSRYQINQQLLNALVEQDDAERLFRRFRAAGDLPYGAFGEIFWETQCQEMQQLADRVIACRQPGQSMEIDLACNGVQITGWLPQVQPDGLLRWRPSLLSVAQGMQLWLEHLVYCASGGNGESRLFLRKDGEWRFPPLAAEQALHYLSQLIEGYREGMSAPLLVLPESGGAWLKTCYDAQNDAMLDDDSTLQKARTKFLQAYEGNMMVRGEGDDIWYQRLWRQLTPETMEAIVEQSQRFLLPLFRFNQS
T5 sequence (P08394 whole entry): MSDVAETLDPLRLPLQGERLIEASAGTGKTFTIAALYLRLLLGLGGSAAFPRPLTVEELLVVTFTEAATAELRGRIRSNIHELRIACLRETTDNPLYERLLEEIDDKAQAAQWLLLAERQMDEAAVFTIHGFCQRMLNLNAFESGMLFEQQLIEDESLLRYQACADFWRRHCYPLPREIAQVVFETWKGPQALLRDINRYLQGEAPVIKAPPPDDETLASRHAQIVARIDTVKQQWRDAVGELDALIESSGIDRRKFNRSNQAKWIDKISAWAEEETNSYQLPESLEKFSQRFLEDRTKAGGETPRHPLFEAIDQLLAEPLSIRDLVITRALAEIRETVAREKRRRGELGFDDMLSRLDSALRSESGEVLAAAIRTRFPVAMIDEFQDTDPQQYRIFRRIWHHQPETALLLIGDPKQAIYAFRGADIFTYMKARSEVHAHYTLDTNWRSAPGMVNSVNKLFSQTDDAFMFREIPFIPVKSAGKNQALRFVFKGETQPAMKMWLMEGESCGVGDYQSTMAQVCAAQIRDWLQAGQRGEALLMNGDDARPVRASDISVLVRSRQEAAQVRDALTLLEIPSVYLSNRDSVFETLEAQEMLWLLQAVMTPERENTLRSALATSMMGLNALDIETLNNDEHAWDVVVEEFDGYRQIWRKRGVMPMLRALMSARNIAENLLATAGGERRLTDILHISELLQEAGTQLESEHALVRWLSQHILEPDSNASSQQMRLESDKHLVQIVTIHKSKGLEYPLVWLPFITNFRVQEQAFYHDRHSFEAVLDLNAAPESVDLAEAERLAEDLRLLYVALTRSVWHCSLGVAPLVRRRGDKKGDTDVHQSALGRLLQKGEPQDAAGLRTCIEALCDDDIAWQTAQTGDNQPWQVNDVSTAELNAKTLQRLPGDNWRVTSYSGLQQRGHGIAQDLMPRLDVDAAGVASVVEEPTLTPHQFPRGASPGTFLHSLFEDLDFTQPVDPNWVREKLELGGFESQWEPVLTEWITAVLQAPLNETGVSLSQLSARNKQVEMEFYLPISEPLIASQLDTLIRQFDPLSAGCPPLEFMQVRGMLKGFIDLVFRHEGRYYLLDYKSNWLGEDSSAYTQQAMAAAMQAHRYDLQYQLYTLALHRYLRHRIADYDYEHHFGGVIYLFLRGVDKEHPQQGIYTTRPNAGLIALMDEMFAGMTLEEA

Cc1cccc(C2c3[nH]c4ccccc4c3CCN2C(=O)c2cc3c(nc2O)CCCC3)n1 (configuration not stated)
IC50 [1]: 11.2 µM (active)

Cc1ccc(S(=O)(=O)Oc2ccc(/C=C3/C(=N)N4C(=NC3=O)SN=C4S(C)(=O)=O)cc2)cc1
IC50 [1]: 13.8 µM (active)

O=C(NC(=S)Nc1ccccc1Cl)c1cncc(Br)c1
IC50 [2]: > 66 µM (inactive) | IC50 [3]: > 66 µM (inactive)

Oc1cccc(C(O)CNCc2ccc(OCc3ccc(Cl)cc3Cl)cc2)c1 (configuration not stated)
AC50 [4]: 3.69 µM (active) | IC50 [1]: 1.82 µM (active)

O=C(OCC(=O)C12CC3CC(CC(C3)C1)C2)c1ccc(O)cc1O
AC50 [5]: 24.5 µM (active) | CC50 [6]: > 40 µM (active)

COc1ccc(OC)c(NC(=O)Nc2ccc(O)c3ccccc23)c1
AC50 [7]: 11.5 µM (active) | AC50 [5]: 0.434 µM (active) | EC50 (Protein RecA): 0.152 µM (active)

C=CCn1cc(C(=O)NCCCN(CC)CC)c(=O)c2cc(S(=O)(=O)N3CCC(C)CC3)ccc21
IC50 [1]: 13.2 µM (active)

O=C(/C=C/c1ccccc1)CCN1CCOCC1
GI50 (P388): 2.81 µM (inactive) | GI50 (P388/ADR): 2.43 µM (inactive) | GI50 (SN12K1): 16.5 µM (inactive) | AC50 [5]: 2.94 µM (active)

CCc1cn([C@H]2C[C@H](O)[C@@H](CO)O2)c(=O)[nH]c1=O [EDOXUDINE]
IC50 (Exodeoxyribonuclease V): > 119 µM (inactive) and > 118 µM (inactive)
